US6953800B2, “Use of selective antagonists of the α1B-adrenergic receptor for improvement of sexual dysfunction” (Recordati S.A. Chemical, priority 1999, dated 2005)
Counter-ions that a name gives are not always drawn.

Experiments:
human α1b-adrenoceptor = molecular target: T1, human α1b-adrenoceptor (Homo sapiens, UniProt P35368); assay: [3H]Prazosin binding, cloned human α1b-adrenoceptor in CHO cell membranes
T1 construct: expressed in transfected cells
T1 sequence (P35368 1-520): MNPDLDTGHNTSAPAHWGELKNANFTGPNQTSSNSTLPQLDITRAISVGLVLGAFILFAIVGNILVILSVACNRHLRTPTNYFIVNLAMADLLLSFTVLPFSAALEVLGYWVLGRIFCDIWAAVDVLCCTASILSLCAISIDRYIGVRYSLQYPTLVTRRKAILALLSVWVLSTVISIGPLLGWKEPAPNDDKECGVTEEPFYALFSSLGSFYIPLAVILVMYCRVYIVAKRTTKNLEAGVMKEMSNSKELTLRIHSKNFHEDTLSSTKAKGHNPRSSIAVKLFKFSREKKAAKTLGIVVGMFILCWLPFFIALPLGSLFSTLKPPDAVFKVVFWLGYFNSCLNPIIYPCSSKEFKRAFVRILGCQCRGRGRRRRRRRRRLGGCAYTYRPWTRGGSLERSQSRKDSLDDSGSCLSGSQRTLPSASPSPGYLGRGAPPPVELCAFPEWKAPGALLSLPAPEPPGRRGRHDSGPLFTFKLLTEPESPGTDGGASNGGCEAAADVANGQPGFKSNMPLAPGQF
Experimental: (§1) Binding to cloned human α1-adrenoceptor subtypes was performed in membranes from CHO cells (Chinese hamster ovary cells) transfected by electroporation with DNA expressing the gene encoding each α1-adrenoceptor subtype. […] The incubation was stopped by addition of ice-cold Tris buffer and rapid filtration through 0.2% polyethyleneimine-pretreated Whatman GF/B or Schleicher & Schuell GF52 filters.
(§2) Data are expressed as mean Ki. All patents and other references cited herein are incorporated by reference in their entirety.

human α1d-adrenoceptor = molecular target: T2, human α1d-adrenoceptor (Homo sapiens, UniProt P25100); assay: [3H]Prazosin binding, cloned human α1d-adrenoceptor in CHO cell membranes; settings: read-out: Affinity (Ki) α1d, human cloned receptors
T2 construct: expressed in transfected cells
T2 sequence (P25100 1-572): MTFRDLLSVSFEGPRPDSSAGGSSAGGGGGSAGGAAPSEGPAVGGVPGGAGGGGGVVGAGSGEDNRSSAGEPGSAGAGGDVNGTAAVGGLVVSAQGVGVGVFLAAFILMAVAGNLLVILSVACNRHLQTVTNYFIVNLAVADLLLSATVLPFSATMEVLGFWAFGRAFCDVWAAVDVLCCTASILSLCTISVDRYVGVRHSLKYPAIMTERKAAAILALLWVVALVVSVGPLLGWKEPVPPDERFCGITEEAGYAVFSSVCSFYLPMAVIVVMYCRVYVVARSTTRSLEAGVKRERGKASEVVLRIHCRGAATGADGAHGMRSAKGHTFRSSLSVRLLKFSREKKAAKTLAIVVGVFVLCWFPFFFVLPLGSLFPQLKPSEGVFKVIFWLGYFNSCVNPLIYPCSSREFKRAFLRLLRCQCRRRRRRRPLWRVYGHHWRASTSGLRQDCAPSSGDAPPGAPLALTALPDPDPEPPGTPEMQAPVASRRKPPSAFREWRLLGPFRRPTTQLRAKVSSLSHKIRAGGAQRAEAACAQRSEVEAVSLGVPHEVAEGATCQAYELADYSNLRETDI
Experimental: as §1, §2

hamster α1b-adrenoceptor = molecular target: T3, hamster α1b-adrenoceptor (Mesocricetus auratus, UniProt P18841); assay: [3H]Prazosin binding, hamster α1b-adrenoceptor in COS-7 cell membranes; settings: COS-7 membranes, read-out: Affinity (Ki) α1b, animal cloned receptors
T3 construct: expressed in transfected cells; host or cells: COS-7 cells (transient), membranes
T3 sequence (P18841 1-515): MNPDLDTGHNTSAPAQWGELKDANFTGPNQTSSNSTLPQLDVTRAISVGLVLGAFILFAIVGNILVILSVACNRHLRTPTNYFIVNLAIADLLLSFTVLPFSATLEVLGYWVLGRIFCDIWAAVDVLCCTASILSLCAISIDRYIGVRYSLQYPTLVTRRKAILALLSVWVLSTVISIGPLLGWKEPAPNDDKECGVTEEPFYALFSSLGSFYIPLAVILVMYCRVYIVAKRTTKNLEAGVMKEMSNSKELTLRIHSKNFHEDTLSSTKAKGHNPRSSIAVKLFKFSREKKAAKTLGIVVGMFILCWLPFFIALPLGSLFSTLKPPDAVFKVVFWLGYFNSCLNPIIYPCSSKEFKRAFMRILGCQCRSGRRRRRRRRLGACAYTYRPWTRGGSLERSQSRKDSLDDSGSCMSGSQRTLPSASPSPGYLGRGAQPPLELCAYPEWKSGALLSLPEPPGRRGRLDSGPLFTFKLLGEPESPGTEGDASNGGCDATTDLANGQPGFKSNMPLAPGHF
Experimental: The incubation was stopped by addition of ice-cold Tris buffer and rapid filtration through 0.2% polyethyleneimine pretreated Whatman GF/B or Schleicher & Schuell GF52 filters.
as §2

human α1a-adrenoceptor = molecular target: T4, human α1a-adrenoceptor (Homo sapiens, UniProt P35348); assay: biochemical
T4 sequence (P35348 1-466): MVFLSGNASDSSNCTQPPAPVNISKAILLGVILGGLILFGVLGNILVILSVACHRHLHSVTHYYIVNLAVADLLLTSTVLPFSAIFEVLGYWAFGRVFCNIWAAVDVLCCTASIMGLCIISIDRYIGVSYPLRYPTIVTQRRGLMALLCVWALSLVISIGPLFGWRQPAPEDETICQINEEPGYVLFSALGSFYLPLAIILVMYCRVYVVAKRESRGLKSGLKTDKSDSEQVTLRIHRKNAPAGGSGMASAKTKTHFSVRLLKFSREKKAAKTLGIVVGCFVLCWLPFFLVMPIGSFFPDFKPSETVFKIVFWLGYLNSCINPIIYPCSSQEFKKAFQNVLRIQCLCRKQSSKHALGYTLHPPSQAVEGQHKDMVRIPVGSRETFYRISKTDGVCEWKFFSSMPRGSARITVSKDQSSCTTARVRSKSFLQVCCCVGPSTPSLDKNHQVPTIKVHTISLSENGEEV

anaesthetised dogs = assay: Intracavernous and blood pressure recording in dogs
Experimental: Male beagle dogs were anaesthetised with pentobarbital sodium (i.v. Nembutal, 35 mg/kg for induction and 4 mg/kg/h for maintenance) and intubated with an endotracheal cuffed tube to facilitate free ventilation. A collateral of the left femoral vein was cannulated with a PE catheter for infusion of the anaesthetic. Systemic BP was monitored via a Mikro-tip 6F (Millar Instruments) pressure transducer introduced into the aortic arch through the right common carotid artery. ICP was measured by means of a 20-gauge needle placed into the left or right corpus cavernosum and the same needle was used for intracavernous injection of the drugs. The needle was attached to a catheter filled with heparinized saline (25 IU/mL). […] The compounds to be tested were injected intracavernously in a volume of 0.5 ml and, after each injection, the needle was flushed with 0.5 ml of saline. The vehicles for compound dissolution were tested before the first dose of each drug. The compounds were administered in a cumulative way, with a 30-minute interval between doses. ICP (mmHg) was measured at the peak effect after the administration of the compounds. The duration of tumescence (DT, min) was measured from the beginning of the rise of ICP over its basal value up to the return to baseline. The systolic blood pressure and diastolic blood pressure (mmHg) were measured at the peak effect after the administration of compounds, in order to evaluate the effects of the compounds on BP independently from the effects on ICP. Moreover, the systolic blood pressure was measured at the time of maximal ICP value after intracavernous injection, to evaluate the ICP/BP ratios. […] The data were reported as mean ±s.e. of the mean, or percent variation (±s.e.) of the basal values.

## COc1cc2nc(N3CCN(C(=O)c4ccco4)[C@@H]4CCCC[C@@H]43)nc(N)c2cc1OC [Compound B, 4-Amino-6,7-dimethoxy-2-[(4aR,8aS)-4-(2-furoyl)-cis-octahydro-1-quinoxalinyl]-quinazoline hydrochloride]
Human α1b-adrenoceptor
  Ki: 0.17 nM
Human α1d-adrenoceptor
  Ki: 2.63 nM
Hamster α1b-adrenoceptor
  Ki: 0.68 nM
Human α1a-adrenoceptor
  Ki: 9.43 nM
Anaesthetised dogs; 3 μg/kg intracavernous
  DBP: 110.7 ± 5.5 mmHg
  DT (duration of tumescence): 2.5 ± 0.9 min
  ICP: 36.7 ± 2.2 mmHg
  SBP: 151.7 ± 7.3 mmHg
  SBPICP (SBP at the time of maximal ICP value): 153.3 ± 7.0 mmHg
  increase of ICP in comparison with basal ICP values: 13.7 mmHg
Anaesthetised dogs; 30 μg/kg intracavernous
  DBP: 107.3 ± 4.2 mmHg
  DT (duration of tumescence): 4.3 ± 2.0 min
  ICP: 49.3 ± 14.2 mmHg
  SBP: 150.0 ± 5.9 mmHg
  SBPICP (SBP at the time of maximal ICP value): 151.0 ± 5.7 mmHg
Anaesthetised dogs; 100 μg/kg intracavernous
  DBP: 104.3 ± 4.2 mmHg
  DT (duration of tumescence): 4.4 ± 1.6 min
  ICP: 52.7 ± 13.0 mmHg
  SBP: 146.0 ± 4.8 mmHg
  SBPICP (SBP at the time of maximal ICP value): 147.3 ± 5.0 mmHg
Anaesthetised dogs; 300 μg/kg intracavernous
  DBP: 98.0 ± 6.9 mmHg
  DT (duration of tumescence): 3.5 ± 1.1 min
  ICP: 57.3 ± 11.4 mmHg
  SBP: 139.0 ± 6.6 mmHg
  SBPICP (SBP at the time of maximal ICP value): 147.3 ± 5.7 mmHg
Anaesthetised dogs; 1000 μg/kg (1000 μg given for prazosin, phentolamine) intracavernous
  increase of ICP in comparison with basal ICP values: 73.3 mmHg
Anaesthetised dogs; 1000 μg/kg intracavernous
  DBP: 81.0 ± 4.3 mmHg
  ICP: 93.3 ± 6.2 mmHg
  SBP: 121.7 ± 4.9 mmHg
  SBPICP (SBP at the time of maximal ICP value): 135.7 ± 6.8 mmHg
Anaesthetised dogs; Compound B at the highest dose tested
  duration of action compared with reference compounds: higher than that of the reference compounds tested
Anaesthetised dogs; highest dose 1000 μg/kg
  hypotension on diastolic blood pressure (change): −31 mmHg
Anaesthetised dogs; intracavernous injection
  effect on ICP (in words): increased ICP in a dose-dependent way
